The supplement of paper PMC10331698
± gives the standard deviation of the averaged measurements.

Columns and labels:
Assay in all cases: level (log10 ratio to DMSO vehicle control); higher = higher biomarker level / cell amount than vehicle control
[1] = compound: CCOC(=O)CC(=O)C(F)(F)C(F)(F)F [Ethyl pentafluoropropionyl acetate] (in DMSO)
Experimental: (§1)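 BioMAP Diversity Plus panel of 12 human primary cell co-culture systems (3C, 4H, LPS, SAg, BT, BF4T, BE3C, CASM3C, HDF3CGF, KF3CT, MyoF, Mphg). Compounds were added 1 h before stimulation and left for 24 h (MyoF 48 h; BT 72 h for soluble read-outs or 6 d for IgG). Biomarkers were read by ELISA, cytotoxicity by SRB, PBMC viability and proliferation by Alamar Blue. Each well value was divided by the mean of 8 DMSO control wells on the same plate and log10 transformed; duplicate blinded samples were tested at 4 concentrations.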

[2] = compound: NS(=O)(=O)C(F)(F)C(F)(F)C(F)(F)C(F)(F)C(F)(F)C(F)(F)C(F)(F)C(F)(F)F [Perfluorooctanesulfonamide] (in DMSO)
Experimental: as §1

[3] = compound: O=C(O)C(F)(F)OC(F)(F)C(F)(F)OC(F)(F)C(F)(F)OC(F)(F)C(F)(F)C(F)(F)C(F)(F)F [Perfluoro-3,6,9-trioxatridecanoic acid] (in DMSO); details: 6700 nM
Experimental: as §1

[4] = compound: O=C(O)C=C(C(F)(F)F)C(F)(F)F [3,3-Bis(trifluoromethyl)-2-propenoic acid] (in DMSO)
Experimental: as §1

[5] = compound: O=C(O)CCC(F)(C(F)(F)F)C(F)(F)F [4,4-bis(Trifluoromethyl)-4-fluoropropanoic acid] (in DMSO)
Experimental: as §1

[6] = compound: O=S(=O)(O)C(F)(F)C(F)(F)OC(F)(F)C(F)(F)F [Perfluoro(2-ethoxyethane)sulfonic acid] (in DMSO)
Experimental: as §1

[7] = compound: O=S(=O)(O)CCC(F)(F)C(F)(F)C(F)(F)C(F)(F)C(F)(F)C(F)(F)C(F)(F)C(F)(F)F [8:2 Fluorotelomer sulfonic acid] (in DMSO)
Experimental: as §1

Row | Test System | level (log10) ([1]; 6700 nM) | level (log10) ([1]; 20000 nM) | level (log10) ([1]; 60000 nM) | level (log10) ([2]; 6700 nM) | level (log10) ([2]; 20000 nM) | level (log10) [3] | level (log10) ([4]; 6700 nM) | level (log10) ([4]; 20000 nM) | level (log10) ([4]; 60000 nM) | level (log10) ([5]; 6700 nM) | level (log10) ([5]; 20000 nM) | level (log10) ([5]; 60000 nM) | level (log10) ([6]; 6700 nM) | level (log10) ([6]; 20000 nM) | level (log10) ([6]; 60000 nM) | level (log10) ([7]; 6700 nM) | level (log10) ([7]; 20000 nM) | level (log10) ([7]; 60000 nM)
1 | lMphg:CD62E/E-Selectin | -0.036 ± 0.02 | -0.0245 ± 0.012 | 0.0115 ± 0.025 | -0.118 ± 0.041 | -0.125 ± 0.0057 | -0.025 ± 0.061 | -0.049 ± 0.0085 | -0.068 ± 0.02 | -0.14 ± 0.034 | -0.02 ± 0.038 | -0.0155 ± 0.035 | -0.0285 ± 0.06 | 0.0175 ± 0.0092 | 0.0275 ± 0.0092 | 0.0425 ± 0.0092 | 0.0165 ± 0.0092 | 0.048 ± 0.0042 | 0.103 ± 0.0057
2 | lMphg:CD69 | -0.0405 ± 0.0064 | 0.0005 ± 0.064 | 0.0075 ± 0.12 | -0.0435 ± 0.052 | -0.11 ± 0.037 | -0.056 ± 0.083 | -0.069 ± 0.024 | -0.0915 ± 0.0078 | -0.0275 ± 0.067 | 0.015 ± 0.0071 | 0 ± 0.027 | -0.021 ± 0.0042 | -0.043 ± 0.075 | 0.011 ± 0.0099 | -0.0415 ± 0.0078 | -0.0695 ± 0.023 | -0.059 ± 0.0028 | -0.173 ± 0.025
3 | lMphg:CD106/VCAM-1 | -0.023 ± 0.0028 | 0.013 ± 0.0028 | 0.0195 ± 0.005 | 0.006 ± 0.014 | 0.0365 ± 0.0021 | -0.017 ± 0.011 | -0.0205 ± 0.005 | -0.025 ± 0.0099 | -0.0935 ± 0.0064 | -0.007 ± 0.011 | 0.0005 ± 0.0092 | -0.009 ± 0.017 | -0.0225 ± 0.0064 | -0.016 ± 0.017 | -0.023 ± 0.0014 | -0.0355 ± 0.005 | -0.042 ± 0.0071 | -0.08 ± 0.0057
4 | lMphg:CXCL8/IL-8 | -0.0295 ± 0.023 | -0.01 ± 0.0042 | 0.0095 ± 0.049 | 0.004 ± 0.0042 | 0.124 ± 0.019 | 0.126 ± 0.016 | 0.081 ± 0.016 | 0.123 ± 0.014 | 0.201 ± 0.047 | 0.017 ± 0.059 | 0.032 ± 0.024 | 0.01 ± 0.076 | 0.0055 ± 0.005 | 0.034 ± 0.018 | 0.118 ± 0.016 | 0.001 ± 0.0085 | 0.022 ± 0.013 | 0.0775 ± 0.0035
5 | lMphg:IL-1alpha | -0.0145 ± 0.011 | -0.016 ± 0.024 | 0.0045 ± 0.0092 | 0.053 ± 0.05 | 0.228 ± 0.028 | 0.013 ± 0.025 | -0.073 ± 0.068 | -0.0565 ± 0.052 | -0.043 ± 0.075 | 0.0125 ± 0.07 | 0.022 ± 0.011 | 0.0125 ± 0.026 | 0.006 ± 0.011 | 0.012 ± 0.0071 | 0.0335 ± 0.026 | -0.019 ± 0.014 | -0.011 ± 0.028 | -0.035 ± 0.05
6 | lMphg:M-CSF | -0.01 ± 0.0099 | -0.001 ± 0.028 | 0.005 ± 0.0014 | -0.0445 ± 0.0092 | -0.029 ± 0.021 | 0.023 ± 0.0071 | -0.033 ± 0.0071 | -0.021 ± 0.021 | -0.0325 ± 0.022 | -0.0115 ± 0.043 | -0.0135 ± 0.032 | -0.0165 ± 0.019 | 0.0025 ± 0.0092 | -0.011 ± 0.0028 | -0.011 ± 0.0071 | -0.0075 ± 0.033 | -0.014 ± 0.013 | 0.012
7 | lMphg:SRB | 0.005 ± 0.0071 | -0.0005 ± 0.0078 | 0.0055 ± 0.0035 | -0.013 | -0.052 ± 0.0085 | -0.014 ± 0.0085 | -0.0145 ± 0.013 | -0.0205 ± 0.0021 | -0.0205 ± 0.028 | -0.0025 ± 0.0064 | -0.0005 ± 0.0064 | 0.0065 ± 0.0021 | -0.001 ± 0.0014 | 0 ± 0.013 | -0.021 ± 0.0071 | -0.006 ± 0.02 | -0.013 ± 0.017 | -0.029 ± 0.0057
8 | lMphg:SRB-Mphg | -0.0015 ± 0.018 | -0.0055 ± 0.005 | -0.012 ± 0.02 | -0.0005 ± 0.0064 | -0.027 ± 0.016 | 0.0035 ± 0.0035 | -0.032 | -0.017 ± 0.014 | 0.0035 ± 0.012 | 0.0125 ± 0.0021 | -0.0025 ± 0.012 | 0.002 ± 0.016 | 0.0125 ± 0.005 | 0.0155 ± 0.015 | -0.0045 ± 0.025 | 0.003 ± 0.0028 | -0.012 ± 0.014 | -0.027 ± 0.013
9 | lMphg:sIL-10 | -0.0405 ± 0.012 | -0.0435 ± 0.035 | -0.0305 ± 0.022 | -0.068 ± 0.021 | -0.169 ± 0.025 | -0.0585 ± 0.00071 | -0.2 ± 0.0071 | -0.325 ± 0.029 | -0.547 ± 0.028 | -0.0325 ± 0.005 | -0.062 ± 0.075 | -0.003 ± 0.12 | 0.0105 ± 0.13 | -0.0625 ± 0.005 | -0.818 ± 0.028 | -0.078 ± 0.024 | -0.216 ± 0.0057 | -0.6535 ± 0.0064
